Drawing on the NIST ThermoML archive (doi:10.1016/j.jct.2018.09.003), this text covers activity coefficient for 31 molecules.

This data set is described as follows: activity coefficient (dimensionless); of the first substance listed, at infinite dilution; xn = mol fraction of the nth substance listed. Particulars: 101.33 kPa, Liquid, Chromatography, x1 = 0.

SMILES strings stand for the structures. ± gives the expanded uncertainty stated by the source.

In the case of `CCCCCCCCC` [nonane] + CCCCCCCCn1cc[n+](C)c1C.F[B-](F)(F)F, the activity coefficient was 42.2 ± 4.4 (313.15 K); 41.1 ± 4.3 (323.15 K); 39.6 ± 4.2 (333.15 K); 38.4 ± 4 (343.15 K); 37.1 ± 3.9 (353.15 K).

`CCCCO` [butan-1-ol] + CCCCCCCCn1cc[n+](C)c1C.F[B-](F)(F)F: the activity coefficient runs as follows: (313.15 K) 2.79 ± 0.29; (323.15 K) 2.64 ± 0.28; (333.15 K) 2.52 ± 0.26; (343.15 K) 2.4 ± 0.25; (353.15 K) 2.28 ± 0.24.

For the molecule `CO` [methanol] + CCCCCCCCn1cc[n+](C)c1C.F[B-](F)(F)F, the activity coefficient reads like this: (313.15 K) 1.57 ± 0.16; (323.15 K) 1.47 ± 0.15; (333.15 K) 1.36 ± 0.14; (343.15 K) 1.26 ± 0.13; (353.15 K) 1.18 ± 0.12.

On to `Cc1ccccc1` [toluene] + CCCCCCCCn1cc[n+](C)c1C.F[B-](F)(F)F, for which the activity coefficient amounted to 2.84 ± 0.3 (313.15 K); 2.89 ± 0.3 (323.15 K); 2.95 ± 0.31 (333.15 K); 3.02 ± 0.32 (343.15 K); 3.09 ± 0.32 (353.15 K).

As to `CC(C)=O` [acetone] + CCCCCCCCn1cc[n+](C)c1C.F[B-](F)(F)F, the activity coefficient came to 1.38 ± 0.14 (313.15 K); 1.4 ± 0.14 (323.15 K); 1.41 ± 0.15 (333.15 K); 1.42 ± 0.15 (343.15 K); 1.43 ± 0.15 (353.15 K).

For the molecule `CC1CCCCC1` [methylcyclohexane] + CCCCCCCCn1cc[n+](C)c1C.F[B-](F)(F)F, the activity coefficient is, setting by setting: (313.15 K) 15.8 ± 1.7; (323.15 K) 15.5 ± 1.6; (333.15 K) 15.1 ± 1.6; (343.15 K) 14.7 ± 1.6; (353.15 K) 14.3 ± 1.5.

For `C1CCCCC1` [cyclohexane] + CCCCCCCCn1cc[n+](C)c1C.F[B-](F)(F)F, the activity coefficient (313.15 K) was 12.8 ± 1.4; the activity coefficient (323.15 K) amounted to 12.5 ± 1.3; the activity coefficient (333.15 K) was 12.2 ± 1.3; the activity coefficient (343.15 K) worked out at 11.9 ± 1.2; the activity coefficient (353.15 K) was found to be 11.5 ± 1.2.

As for `CCCCC` [pentane] + CCCCCCCCn1cc[n+](C)c1C.F[B-](F)(F)F, the activity coefficient is, setting by setting: (313.15 K) 15.8 ± 1.7; (323.15 K) 15.3 ± 1.6; (333.15 K) 14.8 ± 1.6; (343.15 K) 14.3 ± 1.5; (353.15 K) 14 ± 1.5.

In the case of `Cc1ccc(C)cc1` [1,4-dimethylbenzene] + CCCCCCCCn1cc[n+](C)c1C.F[B-](F)(F)F, the activity coefficient worked out at 4.06 ± 0.43 (313.15 K); 4.12 ± 0.43 (323.15 K); 4.16 ± 0.44 (333.15 K); 4.2 ± 0.44 (343.15 K); 4.24 ± 0.45 (353.15 K).

As for `CCO` [ethanol] + CCCCCCCCn1cc[n+](C)c1C.F[B-](F)(F)F, the activity coefficient worked out at 2.12 ± 0.22 (313.15 K); 1.96 ± 0.21 (323.15 K); 1.82 ± 0.19 (333.15 K); 1.67 ± 0.17 (343.15 K); 1.54 ± 0.16 (353.15 K).

In the case of `CCCCCCC` [heptane] + CCCCCCCCn1cc[n+](C)c1C.F[B-](F)(F)F, the activity coefficient was determined as 25.5 ± 2.7 (313.15 K); 25.1 ± 2.6 (323.15 K); 24.7 ± 2.6 (333.15 K); 24.3 ± 2.5 (343.15 K); 23.9 ± 2.5 (353.15 K).

Take `Cc1cccc(C)c1` [1,3-dimethylbenzene] + CCCCCCCCn1cc[n+](C)c1C.F[B-](F)(F)F: the activity coefficient was found to be 4.19 ± 0.44 (313.15 K); 4.24 ± 0.45 (323.15 K); 4.29 ± 0.45 (333.15 K); 4.35 ± 0.46 (343.15 K); 4.4 ± 0.46 (353.15 K).

With `CC(C)CC(C)(C)C` [2,2,4-trimethylpentane] + CCCCCCCCn1cc[n+](C)c1C.F[B-](F)(F)F, the activity coefficient is, setting by setting: (313.15 K) 29.6 ± 3.1; (323.15 K) 28.8 ± 3; (333.15 K) 27.9 ± 2.9; (343.15 K) 26.9 ± 2.8; (353.15 K) 26.1 ± 2.8.

Regarding `ClC(Cl)Cl` [trichloromethane] + CCCCCCCCn1cc[n+](C)c1C.F[B-](F)(F)F, the activity coefficient came to 1.04 ± 0.11 (313.15 K); 1.06 ± 0.11 (323.15 K); 1.07 ± 0.11 (333.15 K); 1.08 ± 0.11 (343.15 K); 1.09 ± 0.11 (353.15 K).

Take `CCCCCC` [hexane] + CCCCCCCCn1cc[n+](C)c1C.F[B-](F)(F)F: the activity coefficient by setting is: (313.15 K) 20 ± 2.1; (323.15 K) 19.8 ± 2.1; (333.15 K) 19.2 ± 2; (343.15 K) 18.7 ± 2; (353.15 K) 18.1 ± 1.9.

Consider `CCc1ccccc1` [ethylbenzene] + CCCCCCCCn1cc[n+](C)c1C.F[B-](F)(F)F, for which the activity coefficient runs as follows: (313.15 K) 4.36 ± 0.46; (323.15 K) 4.42 ± 0.46; (333.15 K) 4.46 ± 0.47; (343.15 K) 4.5 ± 0.47; (353.15 K) 4.57 ± 0.48.

`C1COCCO1` [1,4-dioxane] + CCCCCCCCn1cc[n+](C)c1C.F[B-](F)(F)F: the activity coefficient is, setting by setting: (313.15 K) 1.67 ± 0.17; (323.15 K) 1.72 ± 0.18; (333.15 K) 1.77 ± 0.18; (343.15 K) 1.81 ± 0.19; (353.15 K) 1.86 ± 0.19.

Regarding `CCCCCCCCCC` [decane] + CCCCCCCCn1cc[n+](C)c1C.F[B-](F)(F)F, the activity coefficient came out at 55.2 ± 5.8 (313.15 K); 54.2 ± 5.7 (323.15 K); 52.9 ± 5.6 (333.15 K); 51.5 ± 5.4 (343.15 K); 50.5 ± 5.3 (353.15 K).

For the molecule `Cc1ccccc1C` [1,2-dimethylbenzene] + CCCCCCCCn1cc[n+](C)c1C.F[B-](F)(F)F, the activity coefficient (313.15 K) was 3.5 ± 0.37; the activity coefficient (323.15 K) is 3.58 ± 0.38; the activity coefficient (333.15 K) amounted to 3.7 ± 0.39; the activity coefficient (343.15 K) came out at 3.82 ± 0.4; the activity coefficient (353.15 K) was determined as 3.87 ± 0.41.

Regarding `CC(C)O` [propan-2-ol] + CCCCCCCCn1cc[n+](C)c1C.F[B-](F)(F)F, the activity coefficient runs as follows: (313.15 K) 2.5 ± 0.26; (323.15 K) 2.35 ± 0.25; (333.15 K) 2.2 ± 0.23; (343.15 K) 2.07 ± 0.22; (353.15 K) 1.93 ± 0.2.

`c1ccccc1` [benzene] + CCCCCCCCn1cc[n+](C)c1C.F[B-](F)(F)F: the activity coefficient reads like this: (313.15 K) 2.04 ± 0.21; (323.15 K) 2.07 ± 0.22; (333.15 K) 2.1 ± 0.22; (343.15 K) 2.12 ± 0.22; (353.15 K) 2.15 ± 0.23.

Take `CCOC(C)=O` [ethyl acetate] + CCCCCCCCn1cc[n+](C)c1C.F[B-](F)(F)F: the activity coefficient (313.15 K) turned out to be 2.91 ± 0.31; the activity coefficient (323.15 K) was 2.96 ± 0.31; the activity coefficient (333.15 K) was 2.96 ± 0.31; the activity coefficient (343.15 K) is 2.96 ± 0.31; the activity coefficient (353.15 K) turned out to be 2.96 ± 0.31.

`C1CCOC1` [tetrahydrofuran] + CCCCCCCCn1cc[n+](C)c1C.F[B-](F)(F)F: the activity coefficient (313.15 K) turned out to be 2.06 ± 0.22; the activity coefficient (323.15 K) stood at 2.1 ± 0.22; the activity coefficient (333.15 K) is 2.12 ± 0.22; the activity coefficient (343.15 K) stood at 2.13 ± 0.22; the activity coefficient (353.15 K) came to 2.15 ± 0.23.

As for `CC(C)CO` [2-methyl-1-propanol] + CCCCCCCCn1cc[n+](C)c1C.F[B-](F)(F)F, the activity coefficient is, setting by setting: (313.15 K) 2.66 ± 0.28; (323.15 K) 2.54 ± 0.27; (333.15 K) 2.42 ± 0.25; (343.15 K) 2.3 ± 0.24; (353.15 K) 2.19 ± 0.23.

Consider `CCCCCCCC` [octane] + CCCCCCCCn1cc[n+](C)c1C.F[B-](F)(F)F, for which the activity coefficient runs as follows: (313.15 K) 33 ± 3.5; (323.15 K) 32.5 ± 3.4; (333.15 K) 32.2 ± 3.4; (343.15 K) 31.8 ± 3.3; (353.15 K) 31.3 ± 3.3.

In the case of `CCC(C)O` (stereo not given) [butan-2-ol] + CCCCCCCCn1cc[n+](C)c1C.F[B-](F)(F)F, the activity coefficient is 2.93 ± 0.31 (313.15 K); 2.78 ± 0.29 (323.15 K); 2.65 ± 0.28 (333.15 K); 2.51 ± 0.26 (343.15 K); 2.4 ± 0.25 (353.15 K).

In the case of `ClC(Cl)(Cl)Cl` [tetrachloromethane] + CCCCCCCCn1cc[n+](C)c1C.F[B-](F)(F)F, the activity coefficient worked out at 4.11 ± 0.43 (313.15 K); 4.16 ± 0.44 (323.15 K); 4.2 ± 0.44 (333.15 K); 4.23 ± 0.44 (343.15 K); 4.26 ± 0.45 (353.15 K).

In the case of `ClCCl` [dichloromethane] + CCCCCCCCn1cc[n+](C)c1C.F[B-](F)(F)F, the activity coefficient (313.15 K) turned out to be 1.08 ± 0.11; the activity coefficient (323.15 K) turned out to be 1.09 ± 0.11; the activity coefficient (333.15 K) worked out at 1.1 ± 0.11; the activity coefficient (343.15 K) was determined as 1.1 ± 0.11; the activity coefficient (353.15 K) is 1.11 ± 0.11.

On to `C1=CCCCC1` [cyclohexene] + CCCCCCCCn1cc[n+](C)c1C.F[B-](F)(F)F, for which the activity coefficient was found to be 8.2 ± 0.86 (313.15 K); 8.01 ± 0.84 (323.15 K); 7.81 ± 0.82 (333.15 K); 7.63 ± 0.8 (343.15 K); 7.52 ± 0.79 (353.15 K).

For the molecule `CC#N` [acetonitrile] + CCCCCCCCn1cc[n+](C)c1C.F[B-](F)(F)F, the activity coefficient reads like this: (313.15 K) 1.01 ± 0.1; (323.15 K) 1.02 ± 0.1; (333.15 K) 1.04 ± 0.11; (343.15 K) 1.05 ± 0.11; (353.15 K) 1.07 ± 0.11.

With `CCCO` [propan-1-ol] + CCCCCCCCn1cc[n+](C)c1C.F[B-](F)(F)F, the activity coefficient is 2.56 ± 0.27 (313.15 K); 2.39 ± 0.25 (323.15 K); 2.24 ± 0.24 (333.15 K); 2.1 ± 0.22 (343.15 K); 1.97 ± 0.21 (353.15 K).
